The target in series [1] is Indoleamine 2,3-dioxygenase 1 (Homo sapiens, UniProt P14902). The series can be described thus: Inhibition of IDO1 (unknown origin) expressed in human HeLa cells. It counts as cell-based.
In another series the target is Cytochrome P450 2C9 (Homo sapiens, UniProt P11712). The series is described as follows: Inhibition of CYP2C9 (unknown origin). Format: ADME.
The target of series [2] is T1, Voltage-gated inwardly rectifying potassium channel KCNH2 (Homo sapiens, UniProt Q12809). The series is described as follows: Inhibition of hERG. It counts as toxicity.
A short description of series [3]: Metabolic stability in mouse liver microsomes assessed as compound remaining at 0.5 uM incubated for 10 mins relative to control. It counts as ADME, Microsome. The conditions noted are these: for remaining at 10 min, 0.5 µM: liver microsomes, read-out: Stability.
Series [4] can be described thus: Metabolic stability in rat liver microsomes assessed as compound remaining at 0.5 uM incubated for 10 mins relative to control. Format: ADME, Microsome. The note with it: for remaining at 10 min, 0.5 µM: liver microsomes, read-out: Stability; for Stability: microsomes, 10 min, 0.5 µM. (Liver microsomes are a subcellular fraction often used to study metabolism.)
The nature of series [5]: Metabolic stability in human liver microsomes assessed as compound remaining at 0.5 uM incubated for 10 mins relative to control. Format: ADME, Microsome. The conditions noted are these: for remaining at 10 min, 0.5 µM: liver microsomes, read-out: Stability.
Series [6] concerns the target T2, Nuclear receptor subfamily 1 group I member 2 (Homo sapiens, UniProt O75469).
T2 sequence (O75469 whole entry): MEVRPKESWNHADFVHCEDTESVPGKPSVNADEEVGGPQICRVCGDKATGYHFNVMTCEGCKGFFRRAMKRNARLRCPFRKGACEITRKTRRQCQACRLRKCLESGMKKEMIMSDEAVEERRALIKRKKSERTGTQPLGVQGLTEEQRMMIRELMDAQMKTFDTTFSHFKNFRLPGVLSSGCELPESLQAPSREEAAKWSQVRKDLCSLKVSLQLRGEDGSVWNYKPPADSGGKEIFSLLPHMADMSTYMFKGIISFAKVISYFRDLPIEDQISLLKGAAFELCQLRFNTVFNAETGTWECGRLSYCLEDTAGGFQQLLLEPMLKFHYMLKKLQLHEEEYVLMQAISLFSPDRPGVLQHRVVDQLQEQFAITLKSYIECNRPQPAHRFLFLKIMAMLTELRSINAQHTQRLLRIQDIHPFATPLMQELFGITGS
The series can be described thus: Transactivation of PXR (unknown origin). It counts as toxicity.

Series [7] addresses Tryptophan 2,3-dioxygenase (Homo sapiens, UniProt P48775). The series can be described thus: Inhibition of TDO (unknown origin) expressed in HEK cells. Format: cell-based.
A further series deals with T3, Cytochrome P450 2C8 (Homo sapiens, UniProt P10632).
T3 sequence (P10632 whole entry): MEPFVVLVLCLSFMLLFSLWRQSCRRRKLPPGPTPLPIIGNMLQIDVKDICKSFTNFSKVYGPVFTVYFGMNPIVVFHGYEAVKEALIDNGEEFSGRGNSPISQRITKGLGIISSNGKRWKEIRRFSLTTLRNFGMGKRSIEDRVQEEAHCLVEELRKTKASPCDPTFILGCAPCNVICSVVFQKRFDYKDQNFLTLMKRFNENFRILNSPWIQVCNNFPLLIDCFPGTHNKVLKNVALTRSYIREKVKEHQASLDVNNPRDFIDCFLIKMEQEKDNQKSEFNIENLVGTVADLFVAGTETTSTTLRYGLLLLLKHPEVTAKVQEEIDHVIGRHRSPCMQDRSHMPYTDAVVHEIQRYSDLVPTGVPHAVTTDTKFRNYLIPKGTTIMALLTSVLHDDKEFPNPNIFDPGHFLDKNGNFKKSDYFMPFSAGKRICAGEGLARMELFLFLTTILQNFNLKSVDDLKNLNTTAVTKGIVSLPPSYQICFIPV
The series is described as follows: Inhibition of CYP2C8 (unknown origin). It counts as ADME.

Another series deals with Cytochrome P450 2C19 (Homo sapiens, UniProt P33261). The series is described as follows: Inhibition of CYP2C19 (unknown origin). It counts as ADME.
For the next series, the target named is hERG (Homo sapiens, UniProt Q12809). The series can be described thus: (§1) Inhibition of hERG at 10 uM relative to control. Format: toxicity. (In general: hERG is a cardiac potassium channel; its block is linked to QT prolongation.)
Series [8] concerns the target T1, Voltage-gated inwardly rectifying potassium channel KCNH2. The series is described as §1. It counts as toxicity. The note with it: 10 µM.

Data on 18 molecules can be found in ChEMBL document CHEMBL5257092, “Synthesis and biological evaluation of biaryl alkyl ethers as inhibitors of IDO1” (Bioorg Med Chem Lett, 2023).

Chain of Indoleamine 2,3-dioxygenase 1 (P14902 whole entry): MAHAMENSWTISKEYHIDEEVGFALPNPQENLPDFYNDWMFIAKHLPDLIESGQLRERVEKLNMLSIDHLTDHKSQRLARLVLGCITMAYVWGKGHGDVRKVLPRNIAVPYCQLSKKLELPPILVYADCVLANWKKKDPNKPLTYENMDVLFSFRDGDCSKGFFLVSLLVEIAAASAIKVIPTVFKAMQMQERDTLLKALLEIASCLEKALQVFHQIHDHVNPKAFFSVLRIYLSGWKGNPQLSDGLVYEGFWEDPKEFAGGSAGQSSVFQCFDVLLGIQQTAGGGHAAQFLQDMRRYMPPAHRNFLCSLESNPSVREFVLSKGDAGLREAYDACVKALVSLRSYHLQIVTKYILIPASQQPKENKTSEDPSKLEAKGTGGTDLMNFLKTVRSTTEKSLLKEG
Chain of Cytochrome P450 2C9 (P11712 whole entry): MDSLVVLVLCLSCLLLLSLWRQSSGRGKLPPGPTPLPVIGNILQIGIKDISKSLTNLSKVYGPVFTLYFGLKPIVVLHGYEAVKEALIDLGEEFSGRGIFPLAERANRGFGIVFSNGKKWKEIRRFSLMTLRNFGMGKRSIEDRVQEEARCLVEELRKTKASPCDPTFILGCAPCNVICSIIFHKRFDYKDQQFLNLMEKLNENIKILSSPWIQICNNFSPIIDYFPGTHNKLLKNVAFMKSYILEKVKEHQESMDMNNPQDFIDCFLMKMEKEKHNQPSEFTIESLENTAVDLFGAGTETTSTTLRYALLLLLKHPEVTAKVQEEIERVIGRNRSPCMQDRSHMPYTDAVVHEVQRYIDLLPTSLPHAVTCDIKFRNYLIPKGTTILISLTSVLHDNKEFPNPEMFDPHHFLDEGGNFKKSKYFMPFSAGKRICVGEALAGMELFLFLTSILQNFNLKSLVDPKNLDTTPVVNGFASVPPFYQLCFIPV
T1 sequence (Q12809 whole entry): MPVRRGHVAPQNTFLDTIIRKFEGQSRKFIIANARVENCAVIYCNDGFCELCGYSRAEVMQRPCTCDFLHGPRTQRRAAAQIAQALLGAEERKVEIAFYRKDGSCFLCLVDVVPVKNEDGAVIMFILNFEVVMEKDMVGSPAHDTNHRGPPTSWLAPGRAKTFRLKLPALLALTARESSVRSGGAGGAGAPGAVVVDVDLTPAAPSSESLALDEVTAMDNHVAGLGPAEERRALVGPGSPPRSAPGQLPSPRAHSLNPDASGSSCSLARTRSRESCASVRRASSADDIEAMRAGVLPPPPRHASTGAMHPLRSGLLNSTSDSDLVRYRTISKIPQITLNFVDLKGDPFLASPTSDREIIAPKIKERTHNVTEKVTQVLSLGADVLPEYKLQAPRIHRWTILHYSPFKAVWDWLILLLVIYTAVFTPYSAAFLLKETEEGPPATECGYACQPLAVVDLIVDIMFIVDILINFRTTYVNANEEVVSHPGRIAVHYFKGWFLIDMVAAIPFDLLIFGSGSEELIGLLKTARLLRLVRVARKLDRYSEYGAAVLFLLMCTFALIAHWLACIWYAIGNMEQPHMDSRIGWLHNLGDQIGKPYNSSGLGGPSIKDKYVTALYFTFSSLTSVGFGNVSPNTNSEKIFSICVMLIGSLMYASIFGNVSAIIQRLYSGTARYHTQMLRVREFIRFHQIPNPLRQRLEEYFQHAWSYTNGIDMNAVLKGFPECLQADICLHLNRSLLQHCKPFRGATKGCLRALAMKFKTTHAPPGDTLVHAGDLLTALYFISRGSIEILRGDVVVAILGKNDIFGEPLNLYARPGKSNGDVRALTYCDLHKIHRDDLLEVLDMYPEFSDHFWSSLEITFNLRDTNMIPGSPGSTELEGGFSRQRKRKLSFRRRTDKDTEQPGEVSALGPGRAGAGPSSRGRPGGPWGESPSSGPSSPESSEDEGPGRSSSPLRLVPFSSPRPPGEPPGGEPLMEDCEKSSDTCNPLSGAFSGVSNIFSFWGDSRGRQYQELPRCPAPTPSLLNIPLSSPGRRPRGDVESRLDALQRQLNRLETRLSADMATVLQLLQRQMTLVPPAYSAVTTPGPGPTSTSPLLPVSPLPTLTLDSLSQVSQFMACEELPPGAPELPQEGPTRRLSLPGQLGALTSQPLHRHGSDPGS
Chain of Tryptophan 2,3-dioxygenase (P48775 whole entry): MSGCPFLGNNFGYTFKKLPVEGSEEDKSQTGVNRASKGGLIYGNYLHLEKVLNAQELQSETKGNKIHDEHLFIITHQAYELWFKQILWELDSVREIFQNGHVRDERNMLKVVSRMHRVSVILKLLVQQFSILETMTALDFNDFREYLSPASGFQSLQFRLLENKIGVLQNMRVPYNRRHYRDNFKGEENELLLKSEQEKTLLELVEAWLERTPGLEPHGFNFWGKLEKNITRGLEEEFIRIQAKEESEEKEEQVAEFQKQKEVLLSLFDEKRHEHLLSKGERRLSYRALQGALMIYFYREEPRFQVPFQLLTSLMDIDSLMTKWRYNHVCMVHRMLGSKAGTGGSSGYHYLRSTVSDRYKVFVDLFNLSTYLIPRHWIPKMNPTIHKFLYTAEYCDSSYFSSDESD
Chain of Cytochrome P450 2C19 (P33261 whole entry): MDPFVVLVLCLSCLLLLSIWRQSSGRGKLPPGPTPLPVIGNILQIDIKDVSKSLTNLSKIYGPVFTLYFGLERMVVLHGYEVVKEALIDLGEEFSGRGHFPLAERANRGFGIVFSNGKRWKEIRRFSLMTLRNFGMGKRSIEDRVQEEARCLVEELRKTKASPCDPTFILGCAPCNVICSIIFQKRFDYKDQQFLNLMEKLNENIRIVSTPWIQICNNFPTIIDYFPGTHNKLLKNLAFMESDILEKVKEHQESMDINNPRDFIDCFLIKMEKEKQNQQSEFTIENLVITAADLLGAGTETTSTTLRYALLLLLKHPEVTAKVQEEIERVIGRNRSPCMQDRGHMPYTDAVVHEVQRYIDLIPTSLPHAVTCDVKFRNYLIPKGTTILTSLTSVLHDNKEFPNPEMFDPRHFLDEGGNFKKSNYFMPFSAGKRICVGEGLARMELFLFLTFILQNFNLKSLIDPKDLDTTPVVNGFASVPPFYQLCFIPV
Chain of hERG (Q12809 whole entry): as the sequence (Q12809 whole entry) above

Usually IC50 stands for the midpoint of a concentration-inhibition curve. Low readings indicate greater potency, high ones weaker potency. The molecule `COc1ccc(-c2ccc(OC(C(C)C)C(C)C)c(NC(=O)Nc3ccc(C)cc3)c2)cc1C(=O)O` yielded an IC50 in series [1] of 1600 nM.

Regarding `CCCC(CCC)Oc1ccc(-c2ccccc2-c2nn[nH]n2)cc1NC(=O)Nc1ccc(C)cc1`, the figures for the IC50 (on Cytochrome P450 2C9; in series [2]; in series [1]) were 1800 nM, over 80000 nM and 25 nM, respectively. Also, the figures for the remaining at 10 min, 0.5 µM in series [3], in [4] and in [5] were 47%, 76% and 62%, respectively.

Broadly, the EC50 is the midpoint of the concentration-response curve. As for `CCCOc1c(CCC)cc(-c2ccccc2-c2nn[nH]n2)cc1NC(=O)Nc1ccc(C)cc1`, the IC50 against Cytochrome P450 2C9 came to 6200 nM; in [2], 40000 nM; in [1] it was 31 nM. This molecule also registered an EC50 in [6] of over 9000 nM. Further, the remaining at 10 min, 0.5 µM in series [3] was 68%; in series [4] it was 86%; in [5], 82%.

On to `CC(C)CN(CC(C)C)c1ccc(-c2ccccc2C(=O)O)cc1NC(=O)Nc1ccccc1F`, for which the IC50 is 5100 nM against Cytochrome P450 2C9 and 13 nM in [1]. Moreover, the values for the remaining at 10 min, 0.5 µM in series [3], in [4] and in series [5] were 81%, 72% and 75%, respectively.

Regarding `C=CC1(C=C)Oc2c(NC(=O)Nc3ccc(C)cc3)cc(-c3ccccc3-c3nn[nH]n3)cc2[C@@H]1c1ccccc1`, the IC50 in series [2] was over 80000 nM; in series [1], 3.4 nM; in [7] it was over 7500 nM; against Cytochrome P450 2C8, 270 nM. The figures for the remaining at 10 min, 0.5 µM in [3], in series [4] and in series [5] were 77%, 86% and 94%, respectively.

For `Cc1ccc(NC(=O)Nc2cc(-c3ccccc3-c3nn[nH]n3)cc3c2O[C@@H](C)C/C=C\[C@H]3c2ccccc2)cc1`, the IC50 in [1] was 12 nM; at Cytochrome P450 2C8, 1900 nM. Besides, the remaining at 10 min, 0.5 µM turned out to be 76% in [3], 61% in series [4] and 94% in series [5].

Consider `COc1ccc(-c2ccc(Oc3ccccc3C(C)(C)C)c(NC(=O)Nc3ccccc3F)c2)cc1C(=O)O`, for which the IC50 in [7] was over 7500 nM; at Cytochrome P450 2C8 it was 5100 nM. The remaining at 10 min, 0.5 µM in [3] is 61%; in [4] it was 100%; in series [5], 100%.

On to `Cc1ccc(NC(=O)Nc2cc(-c3ccccc3-c3nn[nH]n3)ccc2OC(C(C)C)C(C)C)cc1`, for which the results for the IC50 (against Cytochrome P450 2C9; in series [2]) were 1400 nM and 18000 nM, respectively. Besides, the values for the remaining at 10 min, 0.5 µM in series [3], in [4] and in [5] were 2%, 48% and 41%, respectively.

Turning to `Cc1ccc(NC(=O)Nc2cc(-c3ccccc3-c3nn[nH]n3)cc3c2O[C@@H](C)CCC[C@H]3c2ccccc2)cc1`, the values for the IC50 (in series [1]; against Cytochrome P450 2C8) were 25 nM and 3200 nM, respectively. Further, the remaining at 10 min, 0.5 µM came out at 66% in series [3], 74% in series [4] and 100% in series [5].

As to `CCCOc1c(CCC)cc(-c2ccccc2C(=O)O)cc1NC(=O)Nc1ccc(C)cc1`, the IC50 at Cytochrome P450 2C9 was 14000 nM; in series [2] it was over 80000 nM. In series [6], this molecule registered an EC50 of over 20000 nM. In addition, the results for the remaining at 10 min, 0.5 µM in [3], in [4] and in [5] were 82%, 85% and 100%, respectively.

`C=C[C@@H]1Oc2c(NC(=O)Nc3ccc(C)cc3)cc(-c3ccccc3-c3nn[nH]n3)cc2[C@@H]1c1ccccc1` (racemic): the figures for the IC50 (against Cytochrome P450 2C9; in series [1]) were 970 nM and 5.9 nM, respectively. Besides, the remaining at 10 min, 0.5 µM is 57% in series [3], 77% in series [4] and 82% in series [5].

Turning to `Cc1ccc(NC(=O)Nc2cc(-c3ccccc3-c3nn[nH]n3)cc3c2OCC=CC3c2ccccc2)cc1` (racemic), the IC50 against Cytochrome P450 2C9 turned out to be 2800 nM; in series [2] it was 69000 nM; in series [1] it was 11 nM. In addition, the values for the remaining at 10 min, 0.5 µM in series [3], in [4] and in series [5] were 68%, 66% and 69%, respectively.

With `C=C[C@H]1Oc2c(NC(=O)Nc3ccc(C)cc3)cc(-c3ccccc3-c3nnn[nH]3)cc2[C@@H]1c1ccccc1` (racemic), the IC50 in series [1] was 12 nM; in [7], over 7500 nM; at Cytochrome P450 2C8, 1000 nM. The values for the remaining at 10 min, 0.5 µM in series [3], in [4] and in [5] were 75%, 88% and 78%, respectively.

`COc1ccc(-c2ccc(O[C@@H]3CCCC[C@H]3C)c(NC(=O)Nc3ccc(C)cc3)c2)cc1C(=O)O` (racemic) came in with an IC50 in series [1] of over 1000 nM.

With `Cc1ccc(NC(=O)Nc2cc(-c3ccccc3C(=O)O)ccc2O[C@@H]2CCCC[C@H]2C)cc1` (racemic), half-maximal inhibition in series [1] (IC50) was put at 240 nM.

`Cc1ccc(NC(=O)Nc2cc(-c3ccccc3-c3nn[nH]n3)cc3c2OC(C)(C)[C@H]3c2ccccc2)cc1` (racemic): the concentration for half-maximal inhibition (IC50) in series [1] came out at 6.3 nM; at Cytochrome P450 2C19 it was 420 nM. The remaining at 10 min, 0.5 µM stood at 42% in [3], 73% in [4] and 52% in series [5].

In general, inhibition refers to the percentage by which the read-out fell short of the control. Read a low inhibition as little suppression. `Cc1ccc(NC(=O)Nc2cc(-c3ccccc3-c3nc(=O)[nH]o3)cc3c2OCCCC3c2ccccc2)cc1` (stereo in doubt; 19) displayed an inhibition at 10 µM against hERG of 12%. Also, the results for the IC50 (in [1]; in [7]; against Cytochrome P450 2C19) were 1.5 nM, over 6000 nM and 1200 nM, respectively. In addition, the remaining at 10 min, 0.5 µM was found to be 56% in series [3] and 72% in [5]. Moreover, the Stability in [4] stood at 61%.

As for `Cc1ccc(NC(=O)Nc2cc(-c3ccccc3-c3nn[nH]n3)cc3c2OCCCC3c2ccccc2)cc1` (stereo in doubt; 22), the results for the IC50 (against Cytochrome P450 2C9; in series [1]; in [7] (hek)) were 6800 nM, 15 nM and over 6000 nM, respectively. Besides, in [8], the “inhibition (INH)” value is recorded as 53%. Besides, the Stability in [3] (microsomes, 10 min, 0.5 µM) came to 100%; in series [4], 96%; in [5] (microsomes, 10 min, 0.5 µM), 72%.
